According to patent US20050163711A1, “Intra-dermal delivery of biologically active agents” (Becton, Dickinson and Company, Inc., priority 2003, published 2005):

Experiments:
[1] = Dye staining and tracing in vivo after intradermal injection; design: species or system Balb/c mice; conditions: mouse, ID, 34 gauge needle, 1% solution, one hour post injection
Procedure: MATERIALS AND METHODS. In Vivo cell staining and all the following experiments were conducted under an approved IACUC protocol. Balb/c mice (Charles River Laboratories, Raleigh, N.C.), 6-8 weeks old, were anesthetized (IsoFlurane, Abbott Laboratories, Chicago, Ill.) and injected intradermally with 1% Evans Blue dye solution using a standard syringe with 34 gauge needle. The mice were dissected one hour post injection and the location of the dye observed. The mouse, as the human, has several main groups of easily identified draining lymph nodes.

[2] = Dye staining and tracing in vivo: comparison of SC and ID delivery; design: species or system Yorkshire swine; conditions: swine; for location of dye on dissection: 10 minutes post injection
Procedure: MATERIALS AND METHODS. In vivo cell staining and all the following experiments were conducted under an approved IACUC protocol. […] Visual observation made during ID injection noted immediate transport of the dye from the site of injection moving toward the regional draining lymph node, the inguinal node. This transport was visible through the skin and was extremely rapid, traversing tissues at velocities of up to 10 cm per second. […] The swine was euthanized and dissected 10 minutes post injection and the location of the dye observed.

[3] = ID administration of 200 uL dye with 34G, 1 mm needle/catheter, transport to inguinal lymph node; assay type: in vivo, Yorkshire swine; conditions: swine, manual ID above the right hoof, 200 uls
Procedure: MATERIALS AND METHODS. The following experiments were conducted under an approved IACUC protocol. Yorkshire Swine (Charles River Laboratories, Raleigh, N.C.), approximately 20-25 kg, were anesthetized (Rompun 4 mg/kg, Xylazine 2 mg/kg, and Ketamine 2 mg/kg and maintained on 2% isoflurane) and injected intradermally with 1% Evans Blue (EB) dye solution at various volumes and needle penetration depths using a standard syringe and a 34 gauge needle. Injection volume and rate was controlled manually or with a Harvard Apparatus PhD 2000 programmable pump.
The skin at the injection site, including the injected material and surrounding tissue, was immediately excised after the injection. The tissue was flash frozen on dry ice/2-methylbutane and then stored at −80° C. until sectioning. The frozen tissue was cut longitudinally through the needle insertion point and immediately examined microscopically and photographed. Microscopic examinations were conducted using a Nikon SMZ-U dissecting scope with a Nikon FX-35PX 35 mm camera mount. Alternatively, after injection, the swine was euthanized and the tissue resected and photographed.
One anesthetized Yorkshire swine was manually injected intradermally above the right hoof with 200 uls of EB through a 34G, 1 mm needle/catheter.

[4] = Yorkshire, swine, in vivo
Procedure: Yorkshire swine (Charles River Laboratories, Raleigh, N.C.), 20-25 kg, were anesthetized (telazol/xylazine/ketamine mix (35, 17.5, 17.5 mg/kg respectively, followed by continued isoflurane inhalation) and injected intradermally (90° angle) using a 34G, 1 mm needle/catheter and a standard syringe. IV injections were performed using a 27G, half-inch needle and delivered through a venous catheter. All recovered swine were intubated and hydrated throughout the procedure.
Dye Injections: Yorkshire swine were injected ID as described above, with 200 uls of 250 ug/ml indocyanine green (ICG) in sterile water (Fluka Chemical Corp., Milwaukee, Wis.). Injections sites included the right hind leg, and at the first and second teat of the left mammary chain. Additional injections of 200 μls and 75 μls were performed at 80 ug/ml indocyanine green in order to determine lymphatic flow rates. […]
Image Acquisition: Near infrared images were obtained using a tungsten lamp (Dolan-Jenner, Lawrence, Mass.) fitted with a 750 nm excitation filter (Omega Optical, Brattleboro, Vt.), a CCD camera (Kowa Co., Supercircuits CCTV camera model b/w Hi-Res ExVision) fitted with a 790 nm long pass emission filter (Omega Optical) and a Canon ZR-20 mini-DV camcorder. […] Speed of infusion through the lymphatic vessels determined from film footage.

Row | SMILES | staining of superficial inguinal lymph nodes with the dye [1] | location of dye on dissection ([2]; ID injected) | velocity of dye transport from injection site toward inguinal node ([2]; ID, 34-gauge needle 1 mm, 1% solution, visual observation through skin) | location of dye on dissection ([2]; subcutaneous injected) | transport of dye, visual observation ([2]; subcutaneous, 25 gauge needle, approximate depth 7 mm) | time for dye to travel from site of injection to draining inguinal lymph node [3] | rate of travel of dye to draining inguinal lymph node ([3]; 34G 1 mm needle/catheter) | dye travel speed calculated for one injection [4]
1 | Cc1cc(-c2ccc(/N=N/c3ccc4c(S(=O)(=O)O)cc(S(=O)(=O)O)c(N)c4c3O)c(C)c2)ccc1/N=N/c1ccc2c(S(=O)(=O)O)cc(S(=O)(=O)O)c(N)c2c1O [Evans Blue] | highly stained | moved rapidly through the lymphatic vasculature to the inguinal node | up to 10 cm per second | remained at the site of injection and was not transported to the inguinal node | no apparent transport of the dye | Within seconds | ~20 cm/s | 
2 | CC1(C)C(/C=C/C=C/C=C/C=C2\N(CCCCS(=O)(=O)O)c3ccc4ccccc4c3C2(C)C)=[N+](CCCCS(=O)(=O)[O-])c2ccc3ccccc3c21 [ICG, indocyanine green] |  |  |  |  |  |  |  | 7 cm/s
